Active and inactive are the calls of the source. No rule for the calls is given here.
Legend:
[1] = tested on: S. cerevisiae vps1Δ apl2Δ growth inhibition, dose response; assay: vps1Δ apl2Δ double mutant yeast growth inhibitors – S. cerevisiae, background strain comparison, post-Golgi transport modulator project, dose response (AID 788)
[2] = tested on: S. cerevisiae wild-type background strain growth inhibition; assay: as above; settings: S. cerevisiae vps1Δ apl2Δ growth inhibition, dose response; measured here: wild-type background strain growth

| Compound | IC50 [1] | IC50 [2] [µM] |
| --- | --- | --- |
| CC1=CC(C)(C)Nc2ccc(OC(=O)CN3C(=O)c4cccc5cccc(c45)C3=O)cc21 | > 10 µM (inactive) | > 10 |
| Cc1ccc(C)c(NS(=O)(=O)c2cc(C(=O)N3CCc4ccccc4C3)ccc2Cl)c1 | 8.09 µM (inactive) | 6.88 |
| Cc1cccc(-c2c3c(=O)n(C)c(=O)n(C)c3cn2C2CCCCC2)c1 | > 10 µM (inactive) | > 10 |
| N#Cc1cn(-c2ccccc2)nc1-c1cc2ccccc2oc1=O | > 10 µM (inactive) | > 10 |
| OC(COCc1ccc(Cl)cc1)CN1CC=C(c2ccccc2)CC1 (configuration not stated) | 4.71 µM | 20.8 |
| COc1ccc(Cl)cc1NC(=O)C(C)N1CCN(C/C=C/c2ccccc2)CC1 (configuration not stated) | 9.01 µM | 15 |
| COc1ccc(/C=C2\SC(=S)N(NC(=O)c3csc4c3CCCC4)C2=O)cc1 | > 10 µM (inactive) | > 10 |
| CC(C)(C)n1nnnc1CN(Cc1cccnc1)Cc1ccccc1Cl | > 10 µM (inactive) | > 10 |
| O=C(COc1ccc(Cl)cc1Cl)N1CCN(C/C=C/c2ccccc2)CC1 | 1.46 µM | 7.14 |
| NC(=O)c1ccsc1NC(=O)c1nc(-c2ccccc2)n(-c2ccccc2)n1 | > 10 µM (inactive) | > 10 |
| C=C(C)C1CC=C(CN2CCC(C(=O)OCC)CC2)CC1 (configuration not stated) | 13.5 µM | > 10 |
| CCN(CC)c1ccc(CN2CC=C(c3ccc(F)cc3)CC2)cc1 | 9.87 µM | 25.8 |
| COc1ccc(Nc2nc(N)nc(CSc3nnc(N)s3)n2)cc1 | > 10 µM (inactive) | > 10 |
| N=c1nc(N)nc2n1NC(c1ccc(F)cc1)=CS2 | > 10 µM (inactive) | > 10 |
| CCC(C)(C)n1nnnc1C(c1cc2cc3c(cc2[nH]c1=O)OCO3)N1CCN(C)CC1 (configuration not stated) | > 10 µM (inactive) | > 10 |
| c1ccc(COc2ccc(CN3CCN(c4ccccn4)CC3)cc2)cc1 | > 10 µM (inactive) | > 10 |
| Cc1cccnc1Nc1nc(-c2ccccn2)cs1 | 22.7 µM | > 10 |
| CC1CN(CC(O)COc2ccc(C(C)C)cc2)CC(C)O1 (configuration not stated) | 15.2 µM | > 10 |
| O=C1CN(C(=O)CSc2nnc(-c3ccccc3)n2Cc2ccc3c(c2)OCO3)c2ccccc2N1 | > 10 µM (inactive) | > 10 |
| Cc1cc(C)c2c(c1)/C(=C/C(=O)c1ccc(Br)s1)C(=O)N2 | 2.73 µM (inactive) | 1.42 |
| C=CCc1ccc(OCC(O)CN2CCC(Cc3ccccc3)CC2)c(OC)c1 (configuration not stated) | 4.2 µM | 19.1 |

| Compound | IC50 [1] | IC50 [2] [µM] |
| --- | --- | --- |
| Cc1ccc2cc(CN(CCO)Cc3nnnn3Cc3ccc(F)cc3)c(=O)[nH]c2c1 | > 10 µM (inactive) | > 10 |
| CC1CCCCN1CCNC(=O)Cn1nc(-c2ccccc2)ccc1=O (configuration not stated) | > 10 µM (inactive) | > 10 |
| O=c1c2cccc3c2c(nn1CN1CCOCC1)-c1ccccc1-3 | > 10 µM (inactive) | > 10 |
| Cc1cccc(N2CCN(CC(=O)Nc3nccs3)CC2)c1C | > 10 µM (inactive) | > 10 |
| Cc1c(Cc2ccccc2)c(=O)oc2c(C)c(OCc3nn[nH]n3)ccc12 | > 10 µM (inactive) | > 10 |
| COc1cc(CN2CCN(c3ccc(C)cc3)CC2)cc([N+](=O)[O-])c1O | > 10 µM (inactive) | > 10 |
| COc1ccc(C(=O)c2c(C(F)(F)F)oc3c2C(=O)c2ccccc2C3=O)cc1 | 22.7 µM (inactive) | 2.32 |
| Cc1ccc(SC(C)C(=O)Nc2ncn[nH]2)cc1 (configuration not stated) | > 10 µM (inactive) | > 10 |
| CC(=O)Nc1ccccc1NS(=O)(=O)c1ccc(Cl)cc1 | > 10 µM (inactive) | > 10 |
| O=C1CC(N2CCN(c3ccc(Cl)c(Cl)c3)CC2)C(=O)N1 (configuration not stated) | > 10 µM (inactive) | > 10 |
| CCn1c(-c2c[nH]c3ccccc23)n[nH]c1=S | > 10 µM (inactive) | > 10 |
| C=CCc1ccc(OCCCCN2CC(C)OC(C)C2)c(OC)c1 (configuration not stated) | 2.33 µM | > 10 |
| COC(=O)c1ccc(NC(=O)c2cn(-c3ccccc3)nc2-c2ccncc2)cc1 | > 10 µM (inactive) | > 10 |
| Cc1ccc(OCC(O)CN2CCN(Cc3ccc4c(c3)OCO4)CC2)c(C)c1 (configuration not stated) | 2.35 µM | > 10 |
| O=[N+]([O-])c1cc(C(F)(F)F)ccc1N/N=C/c1cc2ccccc2nc1Cl | > 10 µM (inactive) | > 10 |
| Cc1ccc(C(=O)NCc2occc2C(=O)O)o1 | > 10 µM (inactive) | > 10 |
| COCCCn1c2nc3ccccc3nc2c2c(=O)n(-c3ccccc3OC)cnc21 | > 10 µM (inactive) | > 10 |
| Cc1cc(C)nc(N/N=C/C(Cl)=C/c2ccccc2)n1 | > 10 µM (inactive) | > 10 |
| O=C(c1ccco1)N1CCN=C1SCc1cccnc1 | > 10 µM (inactive) | > 10 |
| Cc1ccc(-n2cc3c(-c4cccc(Br)c4)nnc(C)c3n2)cc1 | 1.94 µM | 13.5 |

Source: PubChem BioAssay AID788 (SRMLSC, 2007)
